Measured values taken from patent publication US8633236B2, “Compounds, compositions and methods” (Cytokinetics, Inc., priority 2002, dated 2014).

Columns and labels:
[1] = tested on: A549 cells; conditions: cited from earlier work
[2] = Potency comparison of separated enantiomers (test not specified); conditions: (R)- versus (S)-enantiomer separated on Chiralpak AD
Method: An enriched 3:1 R:S mixture of chromenone enantiomers was separated into its pure enantiomers by chiral chromatography with the following conditions: Column—Chiralpak AD, 250×4.6 mm (Diacel Inc.). Sample—22.5 mg/ml in 1:1 i-PrOH:hexanes. Conditions—40 min at isocratic 50% i-PrOH in Hexanes, (S)-enantiomer elutes at 18.35 min, (R)-enantiomer elutes at 26.87 min.

Structure (SMILES): CC(=O)O[C@H]1C(=O)[C@@]2(C)[C@H]([C@H](OC(=O)c3ccccc3)[C@]3(O)C[C@H](OC(=O)[C@H](O)[C@@H](NC(=O)c4ccccc4)c4ccccc4)C(C)=C1C3(C)C)[C@]1(OC(C)=O)CO[C@@H]1C[C@@H]2O [paclitaxel]
- GI50 [1]: 4 nM

Structure (SMILES): NC(=O)NO [hydroxyurea]
- GI50 [1]: 500000 nM

Structure (SMILES): COc1cccc2c1C(=O)c1c(O)c3c(c(O)c1C2=O)C[C@@](O)(C(=O)CO)C[C@@H]3O[C@H]1C[C@H](N)[C@H](O)[C@H](C)O1 [doxorubicin]
- GI50 [1]: 63 nM

Structure (SMILES): Cc1ccc(C(=O)N(CCCN)[C@@H](c2oc3cc(Cl)ccc3c(=O)c2Cc2ccccc2)C(C)C)cc1 (single isomer, unassigned) [Example 2 (R)-enantiomer]
- relative potency of enantiomers [2]: significantly more potent than the (S)-enantiomer

Structure (SMILES): O=c1[nH]cc(F)c(=O)[nH]1 [5-fluorouracil]
- GI50 [1]: 1000 nM
